What was measured:
[1] = test system: NCI-H292 tumor-bearing mice; assay: Anti-tumor efficacy in NCI-H292 tumor-bearing mice; format: in vivo; conditions: NCI-H292, Balb/c Nude mice, 5 mg/kg i.p. Q3-4D x4; for Tumor volume (mm^3): day not printed in column (TGI based on day 22); for Complete response rate @ Day 59: tumor volume of 0, 5 mice per group; for Tumor growth inhibition (%) @ Day 22: vs h-IgG 5 mg/kg
Description: SPF female Balb/c Nude mice (purchased from Beijing Vital River Laboratory Animal Technology Co., Ltd.) with certificate No. 110011211108430747 were used in the experiment.
NCI-H292 cells were routinely subcultured for the subsequent in-vivo experiment. The cells were collected by centrifugation. Then the NCI-H292 cells were resuspended in an equal-proportion mixture of PBS (1×) and Matrigel Matrix (Corning) to prepare a cell suspension with a cell concentration of 20×10^6 cells/mL. On day 0. 0.2 mL of the cell suspension was taken and subcutaneously inoculated to the right abdominal area of Balb/c Nude mice to establish NCI-H292 tumor-bearing mouse models.
Four days after the tumor cell inoculation, the tumor volume in each mouse was measured. The mice were grouped (with 5 mice in each group).
h-IgG. […] Administration was performed on days 4, 8, 12, and 15 after the inoculation of NCI-H292 cells. Mice were monitored for tumor volume and body weight twice a week. […] Since death of mice due to tumors occurred earlier in some groups, relative tumor growth inhibition (TG1%) was calculated based on the tumor volume on day 22 after the inoculation by the following formula:
TG1%=100%×(control group tumor volume−treatment group tumor volume)/(control group tumor volume−control group tumor volume before administration).
Tumor volume measurement: The maximum length of major axis (L) and maximum length of minor axis (W) of tumors were measured with a vernier caliper, and tumor volume was calculated by the following formula: V=L×W^2/2.
The mice were weighed using an electronic balance. Mice with tumor volumes above 2000 mm3 or weight loss above 20% were euthanized.

H322 [2] = assay: Proliferation inhibition experiment, H322 (NSCLC); format: cell-based; conditions: EGFR WT, KRAS WT
Method: (§1) • (1) NSCLC: plated at 1500-2500 cells/100 μL in a 96-well low-adsorption plate (Corning, CLS7007-24EA) for 3D cell culture, in which the following cell lines and specific amounts were used: • NSCLC: 2000 cells/100 μL/well • NCI-H292: Cell Bank of the Chinese Academy of Sciences, SCSP-582 • NCI-H322: Cobioer, CBP60134 • NCI-H1650: ATCC, CRL-5883 • NCI-H1975: ATCC, CRL-5908 • SK-MES-1: CoBioer, CBP60152 • NCI-H1703: ATCC, HTB-43 • PC9+hB7H3: constructed as described above • CRC and HNSCC: plated at 1500-2000 cells/100 μL in a 96-well white-bottom plate (NUNC, 136101) for 2D cell culture, in which the following cell lines and specific amounts were used: • CRC: 1500 cells/100 μL/well • CCK-81: CoBioer, CBP60581 • HT-55: CoBioer, CBP60012 • H508: CoBioer, CBP60795 • LS180: CoBioer, CBP60034 • HNSCC: 1500 cells/100 μL/well • TE-1: CoBioer, CBP60655 • Colo680: CoBioer, CBP60452. (2) The antibody molecules prepared in advance by dilution were added to the corresponding cell well plate, mixed well, and cultured in an incubator at 37° C. with 5% CO2 for 5 days. • (3) After 5 days of continuous culture for proliferation inhibition assay, the Cell-Titer reagent (Promega, G7572) prepared in advance was added to cell wells, the plate was left to stand at room temperature for 15-25 min in the dark, and then CRC and HNSCC cells were directly detected by a multimode microplate reader (Molecular Devices, Spectra MAXi3). • (4) NSCLC: Cell-Titer and the cell mixture were transferred to a 96-well white-bottom plate (NUNC, 136101) and detected by a multimode microplate reader (Molecular Devices, Spectra MAXi3).

H322 [3] = assay: ADCC report assay, H322; format: cell-based; conditions: EGFR WT, KRAS WT, effector/target 10:1, 20 h
Method: In the ADCC report assay, ADCC effector cells ((Promega, G7102)) are engineered cells in which FcRIIIa (V158) receptor is overexpressed into Jurkat T cells, which rapidly respond to ADCC through the NFAT-RE driving element within the Jurkat T cells.
• (1) Tumor cells (cell lines listed in Table 3) and ADCC effector cells (Promega, G7102) were mixed well (1.5E4 cells: 1.5E5 cells/well/100 μL (1.5E5: 1.5E6 cells/mL)) according to an effector/target ratio (10:1), and added to a 96-well white plate (NUNC, 136101). • (2) The antibody molecules prepared in advance by dilution were added to the corresponding cell well plates, mixed well, and cultured at 37° C. with 5% CO2 for 20 h. • (3) The Bio-glo reagent (Promega, G755B) prepared in advance was added to the cell well plate, the plate was left to stand at room temperature for 10-15 min in the dark, and then the cells were detected by a multimode microplate reader (Molecular Devices, Spectra MAXi3).

H1975 = assay: Proliferation inhibition experiment, H1975 (NSCLC); format: cell-based; conditions: EGFR L858R T790M, KRAS WT
Method: as §1

TE-1 = assay: Proliferation inhibition experiment, TE-1 (HNSCC); format: cell-based; conditions: EGFR WT, KRAS WT
Method: as §1

| Substance | Tumor volume (mm^3) [1] [mm^3] | Complete response rate @ Day 59 [1] | Tumor growth inhibition (%) @ Day 22 [1] [%] | Max inhibition (%) Mean ± SD (H322 [2]) [%] | EC50 (H322 [3]) [nM] | Max inhibition (%) Mean ± SD (H1975) [%] | Max inhibition (%) Mean ± SD (TE-1) [%] | IC50 (H322 [2]; 3D culture, 5 days) [nM] | IC50 (H1975; 3D culture, 5 days) [nM] | IC50 (TE-1; 2D culture, 5 days) [nM] |
| --- | --- | --- | --- | --- | --- | --- | --- | --- | --- | --- |
| zalutumumab [Zalu mAb] | 96 | 1/5 | 107 | 39.9 ± 0.8 | 0.006 | 51.0 ± 2.3 | 42.2 ± 1.1 | – | – | – |
| amivantamab [JNJ372] | 177 | 0/5 | 100 | 38.2 ± 6.7 | 0.106 | 47.9 ± 3.0 | 32.2 ± 4.7 | 8.06 | 5.67 | 570 |
